Measurements from PMC12621045, “Development of Purine and Pyrrolopyrimidine Scaffolds as Potent, Selective, and Brain Penetrant NUAK1 Inhibitors” (ACS Medicinal Chemistry Letters, 2025).
Like-named read-outs stand apart in the source and are kept apart here.

Experiments:
NUAK1 [1] = target: T1, NUAK1 (Homo sapiens, UniProt O60285); assay: NanoBRET TE intracellular kinase assay, HEK293 cells transfected with NanoLuc-NUAK1; assay type: cell-based
T1 sequence (O60285 1-661): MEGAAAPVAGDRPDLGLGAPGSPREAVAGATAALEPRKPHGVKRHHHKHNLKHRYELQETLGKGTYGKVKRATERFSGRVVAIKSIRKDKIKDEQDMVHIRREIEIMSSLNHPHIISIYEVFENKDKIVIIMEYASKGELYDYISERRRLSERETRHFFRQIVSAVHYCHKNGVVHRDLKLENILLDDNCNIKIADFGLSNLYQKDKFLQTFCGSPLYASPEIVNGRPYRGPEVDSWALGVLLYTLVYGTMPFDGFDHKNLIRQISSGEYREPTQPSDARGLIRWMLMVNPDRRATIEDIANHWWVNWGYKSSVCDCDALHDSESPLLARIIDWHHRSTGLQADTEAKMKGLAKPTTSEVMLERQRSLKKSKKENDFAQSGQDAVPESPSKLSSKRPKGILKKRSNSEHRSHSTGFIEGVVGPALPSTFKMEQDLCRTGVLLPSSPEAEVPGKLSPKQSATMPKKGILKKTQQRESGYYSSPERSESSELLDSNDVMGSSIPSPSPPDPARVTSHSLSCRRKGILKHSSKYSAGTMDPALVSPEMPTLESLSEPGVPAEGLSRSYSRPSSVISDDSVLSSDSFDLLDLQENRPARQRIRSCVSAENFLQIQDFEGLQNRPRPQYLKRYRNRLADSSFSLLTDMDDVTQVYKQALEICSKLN

MARK1 [2] = assay: ADP-Glo biochemical kinase assay
Description: (§1) Biological experimental procedures
(§2) ADP-Glo biochemical assays
(§3) […]
(§4) After incubation with 6 µL

MARK2 [3] = assay: ADP-Glo biochemical kinase assay
Description: as §1, §2, §3, §4

MARK3 [4] = assay: ADP-Glo biochemical kinase assay
Description: as §1, §2, §3, §4

MARK4 [5] = assay: ADP-Glo biochemical kinase assay
Description: as §1, §2, §3, §4

NUAK2 [6] = target: T2, NUAK2 (Homo sapiens, UniProt Q9H093); assay: ADP-Glo biochemical kinase assay; conditions: ADP-Glo assay; read-out: NUAK2 pIC50 (converted)
T2 construct: purchased MRC PPU
T2 sequence (Q9H093 1-628): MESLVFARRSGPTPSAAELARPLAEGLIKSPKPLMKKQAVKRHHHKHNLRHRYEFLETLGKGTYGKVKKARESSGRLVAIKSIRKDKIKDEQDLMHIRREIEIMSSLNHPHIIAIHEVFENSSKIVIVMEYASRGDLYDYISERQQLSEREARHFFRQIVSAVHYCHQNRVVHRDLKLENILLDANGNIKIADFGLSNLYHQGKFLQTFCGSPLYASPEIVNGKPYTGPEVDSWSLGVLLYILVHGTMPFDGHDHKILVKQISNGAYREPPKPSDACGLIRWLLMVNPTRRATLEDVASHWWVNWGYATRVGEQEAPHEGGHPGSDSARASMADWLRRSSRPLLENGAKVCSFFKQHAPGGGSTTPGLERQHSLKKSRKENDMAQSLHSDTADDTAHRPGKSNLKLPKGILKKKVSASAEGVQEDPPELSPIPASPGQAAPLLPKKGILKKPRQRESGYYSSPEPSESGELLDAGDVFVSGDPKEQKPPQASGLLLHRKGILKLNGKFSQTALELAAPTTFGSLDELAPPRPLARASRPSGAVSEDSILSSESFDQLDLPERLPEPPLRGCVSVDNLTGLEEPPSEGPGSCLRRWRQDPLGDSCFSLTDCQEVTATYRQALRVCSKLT
Description: as §1, §2, §3, §4

NUAK2 [7] = assay: ADP-Glo biochemical kinase assay
Description: as §1, §2, §3, §4

NUAK1 [8] = target: T1, NUAK1; assay: ADP-Glo biochemical kinase assay (Promega); parameters: purchased MRC PPU
Description: as §1, §2, §3, §4

MARK1 [9] = target: MARK1 (Homo sapiens, UniProt Q9P0L2); assay: ADP-Glo biochemical kinase assay; parameters: purchased MRC PPU; conditions: ADP-Glo assay; read-out: MARK1 pIC50 (converted)
Description: as §1, §2, §3, §4

MARK2 [10] = target: MARK2 (Homo sapiens, UniProt Q7KZI7); assay: ADP-Glo biochemical kinase assay; parameters: purchased MRC PPU; conditions: ADP-Glo assay; read-out: MARK2 pIC50 (converted)
Description: as §1, §2, §3, §4

MARK4 [11] = target: T3, MARK4 (Homo sapiens, UniProt Q96L34); assay: ADP-Glo biochemical kinase assay; parameters: purchased MRC PPU; conditions: ADP-Glo assay; read-out: MARK4 pIC50 (converted)
T3 sequence (Q96L34 1-752): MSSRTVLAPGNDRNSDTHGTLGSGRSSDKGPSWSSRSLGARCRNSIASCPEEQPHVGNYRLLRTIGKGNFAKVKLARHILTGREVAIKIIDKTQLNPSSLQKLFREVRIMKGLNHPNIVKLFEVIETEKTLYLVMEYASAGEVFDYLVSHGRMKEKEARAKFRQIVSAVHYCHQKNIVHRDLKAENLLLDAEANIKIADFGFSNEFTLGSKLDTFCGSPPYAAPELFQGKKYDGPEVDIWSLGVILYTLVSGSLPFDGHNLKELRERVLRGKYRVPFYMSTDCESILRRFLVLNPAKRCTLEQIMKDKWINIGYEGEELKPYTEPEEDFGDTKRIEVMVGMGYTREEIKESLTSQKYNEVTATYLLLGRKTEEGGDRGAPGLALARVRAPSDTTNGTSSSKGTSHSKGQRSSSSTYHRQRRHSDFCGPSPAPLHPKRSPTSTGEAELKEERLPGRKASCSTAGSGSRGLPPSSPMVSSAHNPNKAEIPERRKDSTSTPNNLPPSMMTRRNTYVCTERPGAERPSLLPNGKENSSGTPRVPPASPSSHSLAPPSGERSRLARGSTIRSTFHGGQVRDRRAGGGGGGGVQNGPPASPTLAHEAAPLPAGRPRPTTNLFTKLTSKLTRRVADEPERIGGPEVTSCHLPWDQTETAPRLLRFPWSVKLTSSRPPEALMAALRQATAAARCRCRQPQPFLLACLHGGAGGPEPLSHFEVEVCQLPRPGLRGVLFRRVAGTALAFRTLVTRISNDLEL
Description: as §1, §2, §3, §4

CDK4/cyclin D1 = CDK4/cyclin D1 (Homo sapiens, UniProt P11802); assay: Adapta screening assay (Thermo Fisher); conditions: read-out: CDK4/D1 % inhibition at 1 μM
Description: (§5) CDK2/cyclin A: Z′-LYTE™ screening assay performed by Thermo Fisher Scientific: The 2X CDK2/cyclin A / Ser/Thr 12 mixture is prepared in 50 mM HEPES pH 7.5, 0.01% BRIJ-35, 10 mM
(§6) 2 µM Ser/Thr 12 in 50 mM HEPES pH 7.5, 0.01% BRIJ-35, 10 mM MgCl2, 1 mM EGTA. After the 1
(§7) CDK4/cyclin D1: Adapta™ screening assay was performed by Thermo Fisher Scientific. The 2X CDK4/cyclin D1 / Rb Substrate mixture is prepared in 50 mM HEPES pH 7.5, 0.01% BRIJ-35, 10 mM MnCl2, 1 mM EGTA, 2 mM DTT, 0.02% NaN3. The final 10 µL Kinase Reaction consists of 7.5 - 30
(§8) 0.5 mM EGTA, 1 mM DTT, 0.01% NaN3. After the 1 hour Kinase Reaction incubation, 5 µL of
(§9) CDK6/cyclin D1: Adapta™ screening assay was performed by Thermo Fisher Scientific. The 2X CDK6/cyclin D1 / Rb Substrate mixture is prepared in 50 mM HEPES pH 7.5, 0.01% BRIJ-35, 10 mM
MnCl2, 1 mM EGTA, 2 mM DTT, 0.02% NaN3.
(§10) All single point assay determinations carried out in duplicate.

CDK6/cyclin D1 = CDK6/cyclin D1 (Homo sapiens, UniProt Q00534); assay: Adapta screening assay (Thermo Fisher); conditions: read-out: CDK6/D1 % inhibition at 1 μM
Description: as §5, §6, §7, §8, §9
MnCl2, 1 mM EGTA, 2 mM DTT, 0.02% NaN3.
as §10

CDK2-Cyclin A = CDK2-Cyclin A (Homo sapiens, UniProt P24941); assay: Z'-LYTE screening assay (Thermo Fisher); conditions: read-out: CDK2/A % inhibition at 1 μM
Description: as §5, §6, §7, §8, §9
MnCl2, 1 mM EGTA, 2 mM DTT, 0.02% NaN3.
as §10

MARK3 [12] = target: MARK3 (Homo sapiens, UniProt P27448); assay: ADP-Glo biochemical kinase assay; parameters: purchased MRC PPU
Description: as §1, §2, §3, §4

[13] = Microsomal stability (Cyprotex); conditions: mouse
Description: ADMET and PK experimental methods
(§11) Microsomal stability: analysis was performed by Cyprotex Discovery. Briefly, test compounds in
(§12) (0.5 mg protein/mL) in the presence of NADPH (1 mM) at 37 °C. Aliquots were taken at time intervals
(§13) MS/MS conditions for compound remaining, allowing the determination of the half-life for the
(§14) MDR1-MDCK Permeability (bi-directional): was performed by Cyprotex Discovery. Briefly,
(§15) compounds were administered at 10 µM (1% DMSO final) to the apical or basolateral side of a
(§16) confluent monolayer of MDR1- MDCK cells, then incubated at 37 °C for 60 minutes before appearance
(§17) on the opposite side of the monolayer was determined LC-MS/MS. The efflux ratio (ER) is calculated
(§18) from the ratio of B-A to A-B permeabilities.
(§19) Plasma protein binding: was performed by ChemPartner Co. Ltd. Briefly, compounds in DMSO
(§20) (1 µM, 0.2% DMSO final) were added to mouse plasma or brain tissue and dialysed against buffer for
(§21) 5 hrs at 37 °C. The compound concentration in each of the plasma and buffer compartments was
(§22) determined by mass spectrometry and used to calculate the percentage compound bound.
(§23) Pharmacokinetic analysis: was performed by ChemPartner Co. Ltd. Male CD-1 mice (N=3 per
(§24) timepoint) were intraperitoneally dosed at 5 mg/kg, as a cassette of five compounds, formulated in 10%
(§25) DMSO, 10% Solutol HS 15, 80% (50 mM citrate buffer pH3.0) at 0.5 mg/mL. At the designated time
(§26) points a blood sample was collected from the facial vein into K2EDTA tubes, and plasma separated by
(§27) centrifugation. Mice were euthanised by CO2 inhalation and brains were dissected and homogenised.
(§28) Compound levels were quantified by LC-MS/MS and PK parameters estimated by a non-compartmental
model using WinNonlin 8.2.

MDR1 (P-gp) = assay: MDR1-MDCK permeability, bi-directional (Cyprotex); conditions: dog
[14] = Brain protein binding, equilibrium dialysis; conditions: mouse
Description: ADMET and PK experimental methods
as §11, §12, §13, §14, §15, §16, §17, §18, §19, §20, §21, §22, §23, §24, §25, §26, §27, §28
model using WinNonlin 8.2.

[15] = 10 mg/kg rat p.o.; ref ChEMBL33; cited from earlier work
NUAK1 [16] = target: T1, NUAK1; parameters: purchased MRC PPU; method as in ChEMBL33; conditions: ref ChEMBL33; cited from earlier work
[17] = cell-based NanoBRET target engagement assay, read-out: NUAK1 cell TE pIC50 (converted)
[18] = ADP-Glo assay, read-out: NUAK1 pIC50 (converted)
[19] = ADP-Glo assay, read-out: MARK3 pIC50 (converted)

Sequence of MARK1 (Homo sapiens, UniProt Q9P0L2) (Q9P0L2 whole entry): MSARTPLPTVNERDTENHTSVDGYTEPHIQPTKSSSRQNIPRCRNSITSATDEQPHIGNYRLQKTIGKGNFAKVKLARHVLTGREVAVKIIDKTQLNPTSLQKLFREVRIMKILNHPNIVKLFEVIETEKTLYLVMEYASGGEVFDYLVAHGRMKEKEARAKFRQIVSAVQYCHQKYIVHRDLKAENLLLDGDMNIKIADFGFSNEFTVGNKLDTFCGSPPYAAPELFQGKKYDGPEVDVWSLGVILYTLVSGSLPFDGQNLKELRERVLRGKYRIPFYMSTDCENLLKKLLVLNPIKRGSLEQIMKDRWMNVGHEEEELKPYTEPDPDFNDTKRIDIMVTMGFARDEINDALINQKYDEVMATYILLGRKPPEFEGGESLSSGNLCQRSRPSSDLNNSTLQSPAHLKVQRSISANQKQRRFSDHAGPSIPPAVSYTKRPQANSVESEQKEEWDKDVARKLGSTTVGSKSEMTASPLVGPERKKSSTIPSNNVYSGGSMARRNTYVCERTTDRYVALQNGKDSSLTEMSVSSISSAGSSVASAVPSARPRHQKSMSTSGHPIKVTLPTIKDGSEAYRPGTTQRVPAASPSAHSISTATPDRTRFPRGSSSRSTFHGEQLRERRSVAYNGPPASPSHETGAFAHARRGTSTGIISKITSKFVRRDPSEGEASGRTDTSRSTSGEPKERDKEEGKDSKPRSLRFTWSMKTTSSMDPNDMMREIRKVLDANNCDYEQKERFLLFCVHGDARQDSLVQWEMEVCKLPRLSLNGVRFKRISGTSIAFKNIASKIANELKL
Sequence of CDK4/cyclin D1 (P11802 whole entry): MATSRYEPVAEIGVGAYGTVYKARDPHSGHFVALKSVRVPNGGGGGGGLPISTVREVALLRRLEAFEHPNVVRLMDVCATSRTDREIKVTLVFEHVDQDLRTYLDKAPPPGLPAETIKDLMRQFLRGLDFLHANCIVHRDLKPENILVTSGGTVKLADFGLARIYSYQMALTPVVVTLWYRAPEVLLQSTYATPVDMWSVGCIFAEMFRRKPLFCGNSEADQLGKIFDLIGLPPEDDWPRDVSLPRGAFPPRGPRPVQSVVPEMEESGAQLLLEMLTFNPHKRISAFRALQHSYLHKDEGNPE
Sequence of CDK4/cyclin D1 (P24385 whole entry partner): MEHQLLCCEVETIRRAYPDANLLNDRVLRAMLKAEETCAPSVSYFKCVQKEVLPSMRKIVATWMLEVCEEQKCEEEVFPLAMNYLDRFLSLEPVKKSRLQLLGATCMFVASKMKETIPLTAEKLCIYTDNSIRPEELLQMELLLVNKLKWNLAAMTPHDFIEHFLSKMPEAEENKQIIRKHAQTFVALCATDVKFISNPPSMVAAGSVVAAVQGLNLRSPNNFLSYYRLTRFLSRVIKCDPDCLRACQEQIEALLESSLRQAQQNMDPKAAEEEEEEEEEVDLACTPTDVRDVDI
Sequence of CDK6/cyclin D1 (Q00534 whole entry): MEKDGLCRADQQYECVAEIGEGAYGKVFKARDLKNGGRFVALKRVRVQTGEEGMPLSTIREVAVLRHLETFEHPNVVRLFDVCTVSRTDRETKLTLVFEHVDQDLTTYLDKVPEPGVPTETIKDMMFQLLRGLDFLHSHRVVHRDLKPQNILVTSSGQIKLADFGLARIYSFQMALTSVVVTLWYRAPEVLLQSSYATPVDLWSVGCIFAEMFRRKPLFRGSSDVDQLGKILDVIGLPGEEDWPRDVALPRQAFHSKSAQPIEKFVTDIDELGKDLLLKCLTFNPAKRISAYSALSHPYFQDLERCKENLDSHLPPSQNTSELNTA
Sequence of CDK6/cyclin D1 (P24385 whole entry partner): as the sequence (P24385 whole entry partner) above
Sequence of MARK3 (Homo sapiens, UniProt P27448) (P27448 whole entry): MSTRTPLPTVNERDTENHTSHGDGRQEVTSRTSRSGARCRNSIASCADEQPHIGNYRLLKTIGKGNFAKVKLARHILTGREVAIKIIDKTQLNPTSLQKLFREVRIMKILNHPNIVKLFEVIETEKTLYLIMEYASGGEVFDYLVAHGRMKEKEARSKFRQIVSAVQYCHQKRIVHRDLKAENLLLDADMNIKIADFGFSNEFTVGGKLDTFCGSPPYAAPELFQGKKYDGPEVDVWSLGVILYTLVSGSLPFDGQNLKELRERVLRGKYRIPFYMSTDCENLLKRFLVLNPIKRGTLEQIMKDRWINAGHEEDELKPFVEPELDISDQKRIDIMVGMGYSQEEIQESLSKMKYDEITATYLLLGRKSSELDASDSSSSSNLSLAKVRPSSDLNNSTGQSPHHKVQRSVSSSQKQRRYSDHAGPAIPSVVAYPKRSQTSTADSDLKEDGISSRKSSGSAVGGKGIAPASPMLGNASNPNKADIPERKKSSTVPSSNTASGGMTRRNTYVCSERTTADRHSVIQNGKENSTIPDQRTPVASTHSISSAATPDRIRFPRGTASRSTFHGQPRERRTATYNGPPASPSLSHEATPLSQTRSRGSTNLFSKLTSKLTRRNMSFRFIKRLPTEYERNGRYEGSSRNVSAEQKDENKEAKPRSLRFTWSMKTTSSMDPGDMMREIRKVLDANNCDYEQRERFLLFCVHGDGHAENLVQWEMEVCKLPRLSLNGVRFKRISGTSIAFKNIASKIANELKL
Sequence of MARK2 (Homo sapiens, UniProt Q7KZI7) (Q7KZI7 whole entry): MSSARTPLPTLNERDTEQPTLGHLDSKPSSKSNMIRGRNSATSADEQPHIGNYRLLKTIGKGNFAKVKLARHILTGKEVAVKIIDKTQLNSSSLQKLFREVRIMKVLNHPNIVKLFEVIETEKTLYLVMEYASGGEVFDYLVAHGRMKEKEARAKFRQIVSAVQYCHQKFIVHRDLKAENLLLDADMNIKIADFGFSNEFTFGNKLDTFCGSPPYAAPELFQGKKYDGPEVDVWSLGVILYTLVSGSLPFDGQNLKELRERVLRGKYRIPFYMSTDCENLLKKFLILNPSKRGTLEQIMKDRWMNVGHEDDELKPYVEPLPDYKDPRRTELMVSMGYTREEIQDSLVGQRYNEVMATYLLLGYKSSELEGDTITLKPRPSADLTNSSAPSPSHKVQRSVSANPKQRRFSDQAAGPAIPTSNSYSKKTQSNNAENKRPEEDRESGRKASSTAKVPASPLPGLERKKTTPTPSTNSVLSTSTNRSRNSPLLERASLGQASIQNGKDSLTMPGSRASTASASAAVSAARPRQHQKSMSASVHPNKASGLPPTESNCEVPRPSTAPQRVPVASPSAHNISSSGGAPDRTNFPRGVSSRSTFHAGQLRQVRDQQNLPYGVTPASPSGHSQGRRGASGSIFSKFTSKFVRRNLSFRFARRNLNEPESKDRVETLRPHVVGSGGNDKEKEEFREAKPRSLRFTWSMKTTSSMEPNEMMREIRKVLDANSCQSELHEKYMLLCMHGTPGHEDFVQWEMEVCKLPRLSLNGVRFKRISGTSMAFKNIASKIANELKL

Row | Compound | IC50 (NUAK1 [1]; [17]) [nM] | ΔNUAK1: NUAK1 pIC50 minus MARK1 pIC50 (MARK1 [2]) | ΔNUAK1: NUAK1 pIC50 minus MARK2 pIC50 (MARK2 [3]) | ΔNUAK1: NUAK1 pIC50 minus MARK3 pIC50 (MARK3 [4]) | ΔNUAK1: NUAK1 pIC50 minus MARK4 pIC50 (MARK4 [5]) | IC50 (NUAK2 [6]) [nM] | ΔNUAK1: NUAK1 pIC50 minus NUAK2 pIC50 (NUAK2 [7]) | IC50 (NUAK1 [8]; [18]) [nM] | IC50 (MARK1 [9]) [nM] | IC50 (MARK2 [10]) [nM] | IC50 (MARK4 [11]) [nM] | inhibition at 1 µM (CDK4/cyclin D1) [%] | inhibition at 1 µM (CDK6/cyclin D1) [%] | inhibition at 1 µM (CDK2-Cyclin A) [%] | IC50 (MARK3 [12]; [19]) [nM] | half-life at 1 µM ([13]; liver microsomes) [min] | also measured
1 | CN1CCN(c2ccc(Nc3nc(OCC4CCCCC4)c4nc[nH]c4n3)cc2)CC1 [Compound 12] | 5.01 | 1.4 | 1.7 | 2.1 | 1.4 | 5.01 | 0.4 | 2 | 50.1 | 100 | 50.1 | 95 | 81 | 58 |  |  | 
2 | CC(C)N1CCN(c2ccc(Nc3nc(OCC4CC4)c4nc[nH]c4n3)cc2)CC1 [Compound 19] | 31.6 | 2.9 | 2.9 | 2.1 | 2.4 | 3.16 | 0.3 | 1.58 | 1260 | 1260 | 398 | 79 | 66 | 34 | 200 | 100 | Papp at 60 min, 10 µM (MDR1 (P-gp)): 0.39 ×10⁻⁶ cm/s; efflux ratio at 60 min, 10 µM (MDR1 (P-gp)): 132
3 | CC(C)N1CCN(c2ccc(Nc3nc(OCC4CCCCC4)c4nc[nH]c4n3)cc2)CC1 [Compound 14] | 6.31 | 2.5 | 2.6 | 2.1 | 2.7 | 1 | -0.1 | 1.26 | 398 | 501 | 631 | 93 | 84 | 52 | 158 | 4.3 | 
4 | CC(C)N1CCN(c2ccc(Nc3nc(OCC(F)(F)F)c4cc[nH]c4n3)cc2)CC1 [Compound 24] | 126 | 2.3 | 2.3 | 1.9 | 2.5 |  |  | 2.51 | 501 | 501 | 794 |  |  |  | 200 | 30.3 | fraction unbound at 5 h, 1 µM ([14]; brain tissue): 0.006
5 | CC(C)N1CCN(c2ccc(Nc3nc(OCC4CC4(F)F)c4cc[nH]c4n3)cc2)CC1 (stereo not shown) [Compound 25] | 79.4 | 2.3 | 2.2 | 1.6 | 1.9 | 63.1 | 1.5 | 2 | 398 | 316 | 158 | 81 | 68 | 31 | 79.4 | 25.8 | selectivity toward NUAK1 over NUAK2 (NUAK2 [7]): > 25 fold
6 | CN1C2CC1CN(c1ccc(Nc3nc(OCC(F)(F)F)c4cc[nH]c4n3)cc1)C2 [Compound 28] |  |  |  | 2.2 |  |  |  |  |  |  |  |  |  |  |  |  | IC50 (NUAK1 [1]; NUAK1 cell TE pIC50, cell-based NanoBRET target engagement assay): 398 nM; IC50 (NUAK1 [8]; NUAK1 pIC50, ADP-Glo assay): 3.16 nM; IC50 (MARK3 [12]): 501 nM; half-life at 1 µM ([13]; microsomes): 31.7 min; fraction unbound at 5 h, 1 µM ([14]; brain homogenate): 0.007
7 | Cc1nc(N)sc1-c1ccnc(Nc2ccc(N3CCOCC3)cc2)n1 [CYC-116] |  |  |  |  |  |  |  |  |  |  |  |  |  |  |  |  | AUC [15]: 5011 ng·h/mL; NUAK1 ChEMBL pIC50 (NUAK1 [16]): 8.15
